# Results: PubChem BioAssay AID588845 (Broad Institute, 2011)
# Calls of active or inactive are those of the source. How the calls were made is not given here.
# System: not listed separately
# Test: HMLE_shTWIST CSC-like cell viability loss, confirmation, CellTiter-Glo luminescence, dry powder, set 2 (AID 588845)
# Details: HMLE_shTWIST viability, CellTiter-Glo luminescence, 72 h; at 32 µM (top of the series)
row,Structure (SMILES),viability fraction
1,CC(C)c1ccc(/C=C/C(=O)NC2=NCCS2)cc1,8.35% (inactive)
2,O=C(/C=C/c1ccc(-c2ccccc2)cc1)NC1=NCCS1,81.4% (inactive)
3,O=C(/C=C/c1ccc(Cl)c(Cl)c1)NC1=NCCS1,71.5% (inactive)
4,COc1ccc(/C=C/C(=O)NC2=NCCS2)c(OC)c1,58.2% (inactive)

# System: HMLE_shTWIST viability, CellTiter-Glo luminescence, 72 h
# Test: as above
# Details: not given
row,Structure (SMILES),AC50 [µM]
1,Cc1csc(NC(=O)c2ccc(COc3cccc(Cl)c3)o2)n1,4.3
2,Cc1csc(NC(=O)c2ccc(COc3ccccc3F)o2)n1,0.13
3,Cc1csc(NC(=O)c2ccc(COc3ccccc3)o2)n1,18.2
4,CCc1ccc(/C=C/C(=O)NC2=NCCS2)cc1,11.7
5,Cc1csc(NC(=O)c2ccc(COc3cccc(F)c3)o2)n1,1.7
